Legend:
Type in all cases: cell-based
[1] = tested on: Pseudomonas aeruginosa (PAO1); experiment: Plate based assay, planktonic growth (OD600); details: dilutions 0.010% to 10.000%
Protocol: (§1) The anti-bacterial properties of ascorbic acid were evaluated by testing the effect of dilutions of the material on both biofilm and planktonic growth forms of a Pseudomonas aeruginosa isolate that was obtained from patients with cystic fibrosis. Pseudomonas aeruginosa is a common pathogen isolated from the sinuses of patients with chronic rhinosinusitis. The results of this evaluation as shown graphically in FIG. 1.
(§2) Known concentrations of the bacteria were placed in the 96 well culture plates. Dilutions of ascorbic acid (0% (Control), 0.010%, 0.033%, 0.100%, 0.330%, 1.000%, 3.330%, and 10.000%) were added to predetermined wells. […] The bacterial growth was measured both on the pegs as a biofilm and in the wells as planktonic cells.
(§3) More specifically, both bacterial planktonic and biofilm growth were determined using a modification of the plate based assay described by “Moskowitz et al. (Moskowitz S M, Foster J M, Emerson J, et al. Clinically feasible biofilm susceptibility for isolates of Pseudomonas aeruginosa from patients with cystic fibrosis. J. Clin. Microbiol. 2004, 42: 1915-1922). […] The original culture plate was read at OD600 to determine planktonic growth. […] The lid containing the pegs was then removed from the eluted crystal violet and read at 595 nm using a plate reader (Microplate Reader 680, Bio-Rad Hercules, Calif.). […]

[2] = tested on: Pseudomonas aeruginosa (PAO1) biofilm; experiment: Peg-lid biofilm formation assay (crystal violet, 595 nm); details: dilutions 0.010% to 10.000%
Protocol: as §1, §2, §3

[3] = tested on: human sinonasal mucosa cilia; experiment: Cilia beat frequency (CBF) in human sinonasal mucosa explants
Excerpt: […] were subjected to concentrations of the nasal spray solution to test the effect of the product on the cilia beat frequency (CBF). The samples were microscopically visualized and the images captured at a rate of 250 frames per second using digital image sampling. The samples were first visualized for two to three seconds every minute for five minutes to establish a baseline Cilia Beating Rate. The samples were then subjected to dilutions of the formulation and the effect on the beating rate was measured by comparing this rate to the baseline rate. The results of the measured CBF are seen in FIG. 2.
More specifically, using a dual temperature controlled perfusion chamber, differential interference contrast microscopy, and high speed digital video, epithelial ciliary function was analyzed as described previously (Schipor I, Palmer I N, Cohen A S, Cohen N A. Quantification of ciliary beat frequency in sinonasal epithelial cells using differential interference contrast microscopy and high speed digital video imaging. Am J Rhino 12006; 20: 124-7). Residual human sinonasal mucosa from surgery was placed in ice cold Locke Ringer's solution [136 mM Nacl, 5.6 mM KCI, 10 mM HEPES, 14.3 mM NaHCO, 1.2 mM MgCl2, 2.2 mM CaCl2 and 11.5 mM dextrose, pH 7.35] for transport. Explants were placed in a glass perfusion chamber on a thermostatically controlled stage and held in place with a nylon grid (1.5 mm) whose outer frame is snapped into the inside of the perfusion chamber. The stage and perfusate were maintained at a temperature between 35.5° C. and 37° C. with a dual channel heater (Warner Inst., Hamden Conn.). […]
Images were visualized using a Leica DMLFSA microscope set on an air table (TMC, Peabody, Mass.) using a water immersion 63× objective and differential interference contrast (DIC) optics (Leica Microsystems, Inc., Bannockburn, Ill.). […] A two to three second video was recorded every minute for 5 minutes to establish a baseline frequency. […] The video images were written to a PCI 2.2 board and then analyzed using Midas Professional Analyst video imaging processing software (XCitex, Cambridge, Mass.).
Beating cilia were analyzed using the 1-D line tracking algorithm included in the motion analysis software. […] The software captured the motion history within the analysis grid for the duration of the video and recorded the gray scale intensity variation as a function of time. […] The frequency was calculated as the inverse of the peak-to-peak distance of this waveform. For each sample, at least three areas of beating cilia within the same field were analyzed and the reported frequencies represent the arithmetic means of these values. […]

O=C1O[C@H]([C@@H](O)CO)C(O)=C1O [ascorbate, ascorbic acid]
inhibition of planktonic form (in words) [1]: dose dependent inhibition
inhibition of biofilm form (in words) [2]: dose dependent inhibition
sinonasal CBF with increasing concentration (in words) ([3]; 0.01% to 0.1%): increasing trend
increase in CBF ([3]; 0.1% ascorbate vs control): 13.5%
increase in mucous transport ([3]; 0.1% ascorbate, extrapolated from CBF increase): ~50%
CBF ([3]; 0.1% ascorbate, control 11.8 Hz): 1304 Hz

Source: patent US8337906B2, “Nasal composition” (priority 2006, dated 2012)
